pIC50: −log10 of the molar value. Activity calls are given as the source filed them. No cut-off for these calls is given here.
Experiments:
[1] = Stability in rat plasma at 50 mg/kg, po measured for 24 hrs by HPLC analysis; assay type: ADME, organism-based; settings: in vivo
[2] = Drug metabolism in rat plasma assessed as (4bR,9S)-1-(hydroxymethyl)-3,7-dimethoxy-11-methyl-6-oxo-6,8a,9,10-tetrahydro-5H-9,4b-(epiminoethano)phenanthren-4-yl cinnamate metabolite formation at 50 mg/kg, po measured for 24 hrs by HRMS analysis; assay type: ADME, organism-based; settings: in vivo
[3] = Drug metabolism in rat plasma assessed as double hydrolyzation-mediated metabolite formation at 50 mg/kg, po measured for 24 hrs by HRMS analysis; assay type: ADME, organism-based; settings: in vivo
[4] = Drug metabolism in rat plasma assessed as double hydrolyzation/demethylation-mediated metabolite formation at 50 mg/kg, po measured for 24 hrs by HRMS analysis; assay type: ADME, organism-based; settings: in vivo
[5] = Drug metabolism in rat plasma assessed as double hydrolyzation/double demethylation-mediated metabolite formation at 50 mg/kg, po measured for 24 hrs by HRMS analysis; assay type: ADME, organism-based; settings: in vivo
[6] = Drug metabolism in Sprague-Dawley rat plasma assessed as (4bR,9S)-1-(hydroxymethyl)-3,7-dimethoxy-11-methyl-6-oxo-6,8a,9,10-tetrahydro-5H-9,4b-(epiminoethano)phenanthren-4-yl cinnamate metabolite formation at 50 mg/kg, po measured for 24 hrs by HPLC analysis; assay type: ADME, organism-based; settings: in vivo
[7] = Drug metabolism in mouse liver assessed as (4bR,9S)-1-(hydroxymethyl)-3,7-dimethoxy-11-methyl-6-oxo-6,8a,9,10-tetrahydro-5H-9,4b-(epiminoethano)phenanthren-4-yl cinnamate metabolite formation at 50 mg/kg, po measured for 0.083 to 8 hrs by HPLC analysis; assay type: ADME, organism-based; settings: in vivo, time 0.083-8 hrs
[8] = Drug metabolism in mouse kidney assessed as (4bR,9S)-1-(hydroxymethyl)-3,7-dimethoxy-11-methyl-6-oxo-6,8a,9,10-tetrahydro-5H-9,4b-(epiminoethano)phenanthren-4-yl cinnamate metabolite formation at 50 mg/kg, po measured for 0.083 to 8 hrs by HPLC analysis; assay type: ADME, organism-based; settings: in vivo, time 0.083-8 hrs
[9] = Stability in mouse bone marrow assessed as compound remaining at 50 mg/kg, po measured for 0.083 to 8 hrs by HPLC analysis; assay type: ADME, organism-based; settings: in vivo, time 0.083-8 hrs
[10] = Stability in mouse lymph node assessed as compound remaining at 50 mg/kg, po measured for 0.083 to 8 hrs by HPLC analysis; assay type: ADME, organism-based; settings: in vivo, time 0.083-8 hrs
[11] = Stability in mouse small intestine assessed as compound remaining at 50 mg/kg, po measured for 0.083 to 8 hrs by HPLC analysis; assay type: ADME, organism-based; settings: in vivo, time 0.083-8 hrs
[12] = Drug metabolism in Sprague-Dawley rat plasma assessed as cinnamic acid metabolite formation at 50 mg/kg, po measured for 24 hrs by HPLC analysis; assay type: ADME, organism-based; settings: in vivo
[13] = Drug metabolism in mouse blood assessed as cinnamic acid metabolite formation at 50 mg/kg, po measured for 0.083 to 8 hrs by HPLC analysis; assay type: ADME, organism-based; settings: in vivo, time 0.083-8 hrs
[14] = Drug metabolism in mouse bone marrow assessed as cinnamic acid metabolite formation at 50 mg/kg, po measured for 0.083 to 8 hrs by HPLC analysis; assay type: ADME, organism-based; settings: in vivo, time 0.083-8 hrs
[15] = Drug metabolism in mouse thymus assessed as cinnamic acid metabolite formation at 50 mg/kg, po measured for 0.083 to 8 hrs by HPLC analysis; assay type: ADME, organism-based; settings: in vivo, time 0.083-8 hrs
[16] = Oral bioavailability in Sprague-Dawley rat at 50 mg/kg measured for 0.083 to 24 hrs by HPLC analysis; assay type: ADME, organism-based; settings: in vivo, time 0.083-24 hrs
Mus musculus [17] = experiment: Anti-aplastic anemia activity in BALB/c mouse model of immune-mediated bone marrow failure assessed as increase in animal survival at 10 mg/kg, po treated for 14 days; assay type: functional, organism-based; settings: time 14.0 day
Mus musculus [18] = experiment: Anti-aplastic anemia activity in BALB/c mouse model of immune-mediated bone marrow failure assessed as decrease in abnormal proportion of lymphocytes in bone marrow at 10 mg/kg, po treated for 14 days by H and E staining based analysis; assay type: functional, organism-based; settings: time 14.0 day
Mus musculus [19] = experiment: Anti-aplastic anemia activity in C57BL/6J mouse model of immune-mediated bone marrow failure assessed as increase in dietary intake at 5 to 15 mg/kg, IG qd treated for 21 days; assay type: functional, organism-based; settings: dose 5-15 mg/kg, time 21.0 day
Mus musculus [20] = experiment: Anti-aplastic anemia activity in C57BL/6J mouse model of immune-mediated bone marrow failure assessed as increase in hemoglobin level treated intragastrically once daily for 21 days; assay type: functional, organism-based; settings: dose 5-15 mg/kg, route ig, time 21.0 day
Mus musculus [21] = experiment: Anti-aplastic anemia activity in C57BL/6J mouse model of immune-mediated bone marrow failure assessed as decrease in histopathological change in bone marrow treated intragastrically once daily for 21 days by H and E staining based analysis; assay type: functional, organism-based; settings: dose 5-15 mg/kg, route ig, time 21.0 day
Mus musculus [22] = experiment: Anti-aplastic anemia activity in C57BL/6J mouse model of immune-mediated bone marrow failure assessed as CD8+ T cells at 5 mg/kg, IG qd treated for 12 days by flow cytometry (reference value: 72.15 %); assay type: functional; settings: time 12 day
Mus musculus [23] = experiment: Anti-aplastic anemia activity in C57BL/6J mouse model of immune-mediated bone marrow failure assessed as decrease in CD8+ T cells at 5 to 15 mg/kg, IG qd treated for 12 days by flow cytometry; assay type: functional, organism-based; settings: dose 5-15 mg/kg, time 12.0 day
RAW264.7 = experiment: Cytotoxicity against mouse RAW264.7 cells assessed as inhibition of cell viability incubated for 72 hrs by CCK8 assay; assay type: functional, cell-based; settings: RAW264.7, 72 h
CTLL-2 [24] = experiment: Induction of ferroptosis in mouse CTLL-2 cells assessed as increase in intracellular lipid peroxidation level at 30 uM incubated for 16 hrs by flow cytometry; assay type: functional, cell-based
CTLL-2 [25] = experiment: Induction of ferroptosis in mouse CTLL-2 cells assessed as decrease in GSH level incubated for 16 hrs; assay type: functional, cell-based; settings: dose 7.5-30 µM
CTLL-2 [26] = experiment: Induction of ferroptosis in mouse CTLL-2 cells assessed as increase in p-p38 level at 7.5 to 30 uM incubated for 16 hrs by Western blot analysis; assay type: functional, cell-based; settings: dose 7.5-30 µM
CTLL-2 [27] = experiment: Induction of ferroptosis in IL-2-stimulated mouse CTLL-2 cells assessed as increase in mitochondrial superoxide level at 30 uM incubated for 6 hrs followed by Fer-1 addition measured after 10 hrs by MitoSOX Red staining based fluorescent microscopy; assay type: functional, cell-based; settings: time 16.0 hrs
CTLL-2 [28] = experiment: Induction of ferroptosis in IL-2-stimulated mouse CTLL-2 cells assessed as increase in pMEK level at 30 uM incubated for 6 hrs followed by Fer-1 addition measured after 10 hrs by Western blot analysis; assay type: functional, cell-based; settings: time 16.0 hrs
CTLL-2 [29] = experiment: Induction of ferroptosis in mouse CTLL-2 cells assessed as increase in intracellular Ca2+ concentration incubated for 24 hrs by Fluo-4 AM dye based analysis; assay type: functional, cell-based
CTLL-2 [30] = experiment: Induction of ferroptosis in mouse CTLL-2 cells assessed as increase in intracellular Ca2+ concentration at 10 uM incubated for 60 mins in presence of EDTA by Fluo-4 AM dye based analysis; assay type: functional, cell-based
CTLL-2 [31] = experiment: Induction of ferroptosis in mouse CTLL-2 cells assessed as increase in intracellular Ca2+ concentration at 10 uM incubated for 45 mins in presence of CM4620 by Fluo-4 AM dye based analysis; assay type: functional, cell-based
IEC-6 = experiment: Induction of ferroptosis in rat IEC-6 cells assessed as increase in intracellular Ca2+ concentration at 10 uM by Fluo-4 AM dye based analysis; assay type: functional, cell-based

SMILES: COC1=C[C@@H]2[C@@H]3Cc4c(COC(=O)/C=C/c5ccccc5)cc(OC)c(OC(=O)/C=C/c5ccccc5)c4[C@]2(CCN3C)CC1=O
- Stability [1]: Unstable
- Drug metabolism [2]: metabolite_detected
- Drug metabolism [3]: metabolite_detected
- Drug metabolism [4]: metabolite_detected
- Drug metabolism [5]: metabolite_detected
- Drug metabolism [6]: metabolite_detected
- Drug metabolism [7]: metabolite_detected
- Drug metabolism [8]: metabolite_detected
- Stability [9]: Unstable
- Stability [10]: Unstable
- Stability [11]: Stable
- Drug metabolism [12]: metabolite_detected
- Drug metabolism [13]: metabolite_detected
- Drug metabolism [14]: metabolite_detected
- Drug metabolism [15]: metabolite_detected
- bioavailability [16]: 18%
- Activity (Mus musculus [17]): Active

SMILES: COC1=C[C@@H]2[C@@H]3Cc4c(CO)cc(OC)c(OC(=O)/C=C/c5ccccc5)c4[C@]2(CCN3C)CC1=O
- bioavailability [16]: 59.2%
- Activity (Mus musculus [17]): Active; All Mice Survived
- Activity (Mus musculus [18]): Active
- Activity (Mus musculus [19]): Active
- Activity (Mus musculus [20]): Dose-dependent-effect
- Activity (Mus musculus [21]): Dose-dependent-effect
- Activity (Mus musculus [22]): 60.82%
- Activity (Mus musculus [23]): Active
- pIC50 (RAW264.7): 3.31
- Activity (CTLL-2 [24]): Active
- Activity (CTLL-2 [25]): Dose-dependent-effect
- Activity (CTLL-2 [26]): Active
- Activity (CTLL-2 [27]): inactive
- Activity (CTLL-2 [28]): inactive
- Activity (CTLL-2 [29]): Active
- Activity (CTLL-2 [30]): Active
- Activity (CTLL-2 [31]): inactive
- Activity (IEC-6): Not active; Elevation Was Smaller Than In Mouse Ctll-2 Cells

Reference: ChEMBL document CHEMBL6177973, “A Novel Compound 3a-M1, from Metabolites of Sinomenine Derivative 3a, Exerts Potent Anti-Aplastic Anemia Activity via IP3R/ORAI-Mediated CTL Ferroptosis” (J Med Chem, 2025)
